≈ marks a conversion by molar mass, not a printed value.
These compounds were tested on various strains of bacteria (assay: Antimicrobial potency: bacterial growth inhibition by OD600 (Antibacterial assay 1, MITC95)). Conditions: Acinetobacter baumannii, 20 h, lowest concentration giving >95% growth inhibition, CAMHB, 18-22 h.
Format: cell-based, A. baumannii
Method: The concentrations of compounds required to inhibit the growth of various strains of bacteria were determined in an assay that assessed bacterial growth by measuring optical density at 600 nm (OD600). Test articles were dissolved in 100% DMSO and serially diluted two-fold from their maximal concentration in 100% DMSO. Forty-nine μl of bacterial inoculum (at approx. 2×10^5 cfu/mL in CAMHB) were put into wells of an assay plate. One μl of compound or DMSO was transferred from the source plate to the assay plate. The completed assay plates were then incubated at 35+2degC for 18-22 h. Bacterial growth was measured by reading OD600 on a spectrophotometer. Data analysis calculates the lowest concentration of compound which results in >95% growth inhibition (minimum inhibitory threshold concentration 95%, MITC95).
For `O=C(O)c1cc(OC[C@H]2C[C@@H](NCc3ccc(NS(=O)(=O)N4CC(Oc5ccc(F)cc5)C4)c(C(=O)O)c3)C2)ccc1NS(=O)(=O)c1cnc(-c2ccc(Cl)cc2)s1` [Compound 96], the MIC was 0.0122 µM (≈ 0.0106 µg/mL).
For `Cn1nc(-c2ccc(F)cc2)cc1S(=O)(=O)Nc1ccc(CNC2CC(CNc3ccc(NS(=O)(=O)c4cnn(-c5ccc(F)cc5)c4)c(C(=O)O)c3)C2)cc1C(=O)O` (centres unmarked) [Compound 33], the MIC was 0.0489 µM (≈ 0.0414 µg/mL).
`O=C(O)c1cc(CNC2CC(CNc3ccc(NS(=O)(=O)c4cnn(-c5ccc(F)cc5)c4)c(C(=O)O)c3)C2)ccc1NS(=O)(=O)CCc1ccc(Cl)cc1` (centres unmarked) [Compound 27] was tested, and the MIC was 0.391 µM (≈ 0.317 µg/mL).
For `O=C(O)c1cc(CN2CC(Oc3ccc(NS(=O)(=O)c4cnn(-c5ccc(Cl)cc5)c4)c(C(=O)O)c3)C2)ccc1NS(=O)(=O)CCCCc1ccc(Cl)cc1` [Compound 41], the MIC was 0.0122 µM (≈ 0.0101 µg/mL).
`O=C(O)c1cc(NCC2CC(NCc3ccc(NS(=O)(=O)N4CCOC(c5ccc(F)cc5)C4)c(C(=O)O)c3)C2)ccc1NS(=O)(=O)c1cnn(-c2ccc(F)cc2)c1` (centres unmarked) [Compound 36] was tested, and the MIC was 0.0489 µM (≈ 0.0417 µg/mL).
`O=C(CCCC(=O)c1ccc(F)cc1)Nc1ccc(OC2CN(Cc3ccc(NS(=O)(=O)c4cnn(-c5ccc(Cl)cc5)c4)c(C(=O)O)c3)C2)cc1C(=O)O` [Compound 75] gave an MIC of 0.277 µM (≈ 0.219 µg/mL).
`O=C(O)c1cc(OC[C@H]2CC[C@@H](COc3ccc(NS(=O)(=O)CCc4ccc(Cl)cc4)c(C(=O)O)c3)O2)ccc1NS(=O)(=O)CCc1ccc(Cl)cc1` [Compound 21] showed an MIC of 0.0489 µM (≈ 0.0395 µg/mL).
`CCCCc1ccc(S(=O)(=O)Nc2ccc(CN3CC(Oc4ccc(NS(=O)(=O)c5ccc(-c6ccc(F)cc6)cc5)c(C(=O)O)c4)C3)cc2C(=O)O)cc1` [Compound 108] was tested, and the MIC was 0.0489 µM (≈ 0.0385 µg/mL).
`O=C(O)c1cc(COC2CN(Cc3ccc(NS(=O)(=O)c4cnn(-c5ccc(Cl)cc5)c4)c(C(=O)O)c3)C2)ccc1NS(=O)(=O)c1cnn(-c2ccc(Cl)cc2)c1` [Compound 37, 5-(((1-(3-carboxy-4-(1-(4-chlorophenyl)-1H-pyrazole-4-sulfonamido)benzyl)azetidin-3-yl)oxy)methyl)-2-(1-(4-chlorophenyl)-1H-pyrazole-4-sulfonamido)benzoic acid] was tested, and the MIC was 0.0692 µM (≈ 0.059 µg/mL).
`O=C(O)c1cc(CN2CC(Oc3ccc(NS(=O)(=O)c4ccc(-c5cccc(Cl)c5)cc4)c(C(=O)O)c3)C2)ccc1NS(=O)(=O)CCc1ccc(Cl)cc1` [Compound 101] was tested, and the MIC was 0.0245 µM (≈ 0.0199 µg/mL).
Compound `O=C(O)c1cc(OC2CN(Cc3ccc(NS(=O)(=O)c4cnn(-c5ccc(F)cc5)c4)c(S(=O)(=O)O)c3)C2)ccc1NS(=O)(=O)c1cnn(-c2ccc(F)cc2)c1` [Compound 3, 2-((1-(4-fluorophenyl)-1H-pyrazole)-4-sulfonamido)-5-((1-(4-((1-(4-fluorophenyl)-1H-pyrazole)-4-sulfonamido)-3-sulfobenzyl)azetidin-3-yl)oxy)benzoic acid] has an MIC of 0.277 µM (≈ 0.233 µg/mL).
`O=C(O)c1cc(CN2CC(Oc3ccc(NS(=O)(=O)c4ccc(-c5ccc(F)cc5)cc4)c(C(=O)O)c3)C2)ccc1NS(=O)(=O)c1cnn(-c2ccc(F)cc2)c1` [Compound 100] gave an MIC of 0.0489 µM (≈ 0.0399 µg/mL).
With `O=C(O)c1cc(OC[C@H]2C[C@@H](NCc3ccc(NS(=O)(=O)N4CCOC(c5ccc(F)cc5)C4)c(C(=O)O)c3)C2)ccc1NS(=O)(=O)c1cnn(-c2ccc(F)cc2)c1` (some centres unmarked) [Compound 88] the MIC was 0.0122 µM (≈ 0.0104 µg/mL).
`O=C(O)c1cc(CN2CC(Oc3ccc(NS(=O)(=O)c4ccc(-c5ccc(F)cc5)cc4)c(C(=O)O)c3)C2)ccc1NS(=O)(=O)c1ccc(-c2ccc(F)cc2)cc1` [Compound 98] showed an MIC of 0.0692 µM (≈ 0.0572 µg/mL).
Compound `O=C(O)c1cc(CN[C@H]2C[C@@H](COc3ccc(NS(=O)(=O)c4ccc(-c5ccc(Cl)cc5)s4)c(C(=O)O)c3)C2)ccc1NS(=O)(=O)CCc1ccc(Cl)cc1` [Compound 94] has an MIC of 0.0086 µM (≈ 0.00727 µg/mL).
Compound `O=C(O)c1cc(CNC2CC(CNc3ccc(NS(=O)(=O)c4cnn(-c5ccc(Cl)cc5)c4)c(C(=O)O)c3)C2)ccc1NS(=O)(=O)c1cnn(-c2ccc(Cl)cc2)c1` (centres unmarked) [Compound 32] has an MIC of 0.0245 µM (≈ 0.0212 µg/mL).
Work on `O=C(O)c1cc(OC2CN(Cc3ccc(NS(=O)(=O)c4ccc(-c5ccccc5)s4)c(C(=O)O)c3)C2)ccc1NS(=O)(=O)CCc1ccc(F)cc1` [Compound 86] yielded an MIC of 0.0245 µM (≈ 0.0188 µg/mL).
`O=C(O)c1cc(CN2CC(Oc3ccc(NS(=O)(=O)c4cnn(-c5ccc(Cl)cc5)c4)c(C(=O)O)c3)C2)ccc1NS(=O)(=O)CCCc1ccc(F)cc1` [Compound 42] gave an MIC of 0.0489 µM (≈ 0.039 µg/mL).
`O=C(O)c1cc(CN2CC(Oc3ccc(NS(=O)(=O)c4cnn(-c5ccc(F)cc5)c4)c(C(=O)O)c3)C2)ccc1NS(=O)(=O)c1cnn(-c2ccc(F)cc2)c1` [Compound 115, 5-((1-(3-carboxy-4-(1-(4-fluorophenyl)-1H-pyrazole-4-sulfonamido)benzyl)azetidin-3-yl)oxy)-2-(1-(4-fluorophenyl)-1H-pyrazole-4-sulfonamido)benzoic acid] gave an MIC of 0.277 µM (≈ 0.223 µg/mL).
For `O=C(NCc1cccc(Cl)c1)C(=O)Nc1ccc(OC2CN(Cc3ccc(NS(=O)(=O)c4ccc(-c5ccc(Cl)cc5)cc4)c(C(=O)O)c3)C2)cc1C(=O)O` [Compound 63], the MIC was 0.196 µM (≈ 0.158 µg/mL).
With `O=C(O)c1cc(CN2CC(Oc3ccc(NS(=O)(=O)c4cnc(-c5ccc(F)cc5)o4)c(C(=O)O)c3)C2)ccc1NS(=O)(=O)c1cnc(-c2ccc(F)cc2)o1` [Compound 120] the MIC was 0.0489 µM (≈ 0.0395 µg/mL).
In the case of `O=C(O)c1cc(CNC2CC(CNc3ccc(NS(=O)(=O)c4cnn(-c5ccc(Cl)cc5)c4)c(C(=O)O)c3)C2)ccc1NS(=O)(=O)c1cnn(-c2ccc(F)cc2)c1` (centres unmarked) [Compound 35], the MIC is reported as 0.0489 µM (≈ 0.0415 µg/mL).
In the case of `C[C@]1(NCc2ccc(NS(=O)(=O)c3cnn(-c4ccc(Cl)cc4)c3)c(C(=O)O)c2)C[C@@H](NCc2ccc(NS(=O)(=O)c3cnn(-c4ccc(Cl)cc4)c3)c(C(=O)O)c2)C1` [Compound 51], the MIC is reported as 3.13 µM (≈ 2.75 µg/mL).
For `O=C(NCc1ccccc1)C(=O)Nc1ccc(OC2CN(Cc3ccc(NS(=O)(=O)c4ccc(-c5ccc(Cl)cc5)cc4)c(C(=O)O)c3)C2)cc1C(=O)O` [Compound 62], the MIC was < 0.0488 µM.
`O=C(O)c1cc(OC2CN(Cc3ccc(NS(=O)(=O)c4ccc(-c5ccc(Cl)cc5)s4)c(C(=O)O)c3)C2)ccc1NS(=O)(=O)c1ccc(-c2ccc(F)cc2)cc1` [Compound 107] was tested, and the MIC was 0.0489 µM (≈ 0.0415 µg/mL).
`O=C(O)c1cc(CN2CC(Oc3ccc(NS(=O)(=O)c4ccc(-c5ccc(Cl)cc5)cc4)c(C(=O)O)c3)C2)ccc1NS(=O)(=O)c1cnn(-c2ccc(F)cc2)c1` [Compound 104] showed an MIC of 0.0346 µM (≈ 0.0288 µg/mL).
`O=C(O)c1cc(COC2CC(OCc3ccc(NS(=O)(=O)c4ccc(-c5ccc(Cl)cc5)cc4)c(C(=O)O)c3)C2)ccc1NS(=O)(=O)CCc1ccc(Cl)cc1` (centres unmarked) [Compound 17] was tested, and the MIC was < 0.0488 µM.
With `O=C(O)c1cc(CN2CC(Oc3ccc(NS(=O)(=O)N4CC(Oc5ccc(F)cc5)C4)c(C(=O)O)c3)C2)ccc1NS(=O)(=O)N1CC(Oc2ccc(F)cc2)C1` [Compound 80, 5-((1-(3-carboxy-4-((3-(4-fluorophenoxy)azetidine)-1-sulfonamido)benzyl)azetidin-3-yl)oxy)-2-((3-(4-fluorophenoxy)azetidine)-1-sulfonamido)benzoic acid] the MIC was 0.0122 µM (≈ 0.00995 µg/mL).
Work on `O=C(O)c1cc(CN2CC(Oc3ccc(NS(=O)(=O)N4CCOC(c5ccc(F)cc5)C4)c(C(=O)O)c3)C2)ccc1NS(=O)(=O)N1CCOC(c2ccc(F)cc2)C1` (centres unmarked) [Compound 44, 5-((1-(3-carboxy-4-((2-(4-fluorophenyl)morpholine)-4-sulfonamido)benzyl)azetidin-3-yl)oxy)-2-((2-(4-fluorophenyl)morpholine)-4-sulfonamido)benzoic acid] yielded an MIC of 0.391 µM (≈ 0.33 µg/mL).
`O=C(O)c1cc(CN2CC(Oc3ccc(NS(=O)(=O)CCc4ccc(Cl)cc4)c(C(=O)O)c3)C2)ccc1NS(=O)(=O)CCc1ccc(Cl)cc1` [Compound 79] was tested, and the MIC was 0.0978 µM (≈ 0.0746 µg/mL).
With `O=C(O)c1cc(CN2CC(Oc3ccc(NS(=O)(=O)c4ccc(-c5ccc(Cl)cc5)cc4)c(C(=O)O)c3)C2)ccc1NS(=O)(=O)c1ccc(OC(F)F)cc1` [Compound 103] the MIC was 0.0245 µM (≈ 0.0199 µg/mL).
In the case of `O=C(NCc1ccc(Cl)cc1)C(=O)Nc1ccc(CN2CC(Oc3ccc(NS(=O)(=O)N4CCOC(c5ccc(F)cc5)C4)c(C(=O)O)c3)C2)cc1C(=O)O` (centres unmarked) [Compound 56], the MIC is reported as 0.0978 µM (≈ 0.0779 µg/mL).
`O=C(NCc1ccc(Cl)cc1)C(=O)Nc1ccc(OC2CN(Cc3ccc(NS(=O)(=O)c4cc(-c5ccc(F)cc5)ns4)c(C(=O)O)c3)C2)cc1C(=O)O` [Compound 59] showed an MIC of 0.0245 µM (≈ 0.0195 µg/mL).
In the case of `O=C(O)c1cc(CN2CC(Oc3ccc(NS(=O)(=O)c4ccc(-c5ccc(Cl)cc5)cc4)c(C(=O)O)c3)C2)ccc1NS(=O)(=O)c1ccc(-c2ccc(Cl)cc2)cc1` [Compound 97, 5-((1-(3-carboxy-4-((4′-chloro-(1,l′-biphenyl))-4-sulfonamido)benzyl)azetidin-3-yl)oxy)-2-((4′-chloro-(1,l′-biphenyl))-4-sulfonamido)benzoic acid], the MIC is reported as 0.0978 µM (≈ 0.084 µg/mL).
`O=C(O)c1cc(CNC2CC(CNc3ccc(NS(=O)(=O)c4cnn(-c5ccc(F)cc5)c4)c(C(=O)O)c3)C2)ccc1NS(=O)(=O)c1ccc(-c2ccc(Cl)cc2)cc1` (centres unmarked) [Compound 30] showed an MIC of 0.277 µM (≈ 0.238 µg/mL).
With `O=C(O)c1cc(OC[C@H]2CC[C@@H](COc3ccc(NS(=O)(=O)c4cnn(-c5ccc(F)cc5)n4)c(C(=O)O)c3)O2)ccc1NS(=O)(=O)c1cnn(-c2ccc(F)cc2)n1` [Compound 20] the MIC was 0.0245 µM (≈ 0.0209 µg/mL).
`O=C(O)c1cc(CN[C@H]2C[C@@H](NCc3ccc(NS(=O)(=O)c4cnn(-c5ccc(Cl)cc5)c4)c(C(=O)O)c3)C2)ccc1NS(=O)(=O)c1cnn(-c2ccc(Cl)cc2)c1` [Compound 48, 5-((((1s, 3s)-3-((3-carboxy-4-((1-(4-chlorophenyl)-1H-pyrazole)-4-sulfonamido)benzyl)amino)cyclobutyl)amino)methyl)-2-((1-(4-chlorophenyl)-1H-pyrazole)-4-sulfonamido)benzoic acid] showed an MIC of 0.321 µM (≈ 0.278 µg/mL).
Compound `O=C(CCCCC(c1ccccc1)c1ccccc1)Nc1ccc(OC2CN(Cc3ccc(NS(=O)(=O)c4cnn(-c5ccc(Cl)cc5)c4)c(C(=O)O)c3)C2)cc1C(=O)O` [Compound 74] has an MIC of 0.31 µM (≈ 0.263 µg/mL).

Reference: patent US20250326713A1, “INHIBITORS OF MsbA AS ANTIBIOTICS, PHARMACEUTICAL COMPOSITIONS, AND USES THEREOF” (priority 2022, published 2025)
